According to patent US11786534B2 (TAIHO PHARMACEUTICAL CO., LTD., priority 2019, dated 2023):
Like-named read-outs stand apart in the source and are kept apart here.

Legend:
[1] = biological target: Ba/F3-EGFR (L858R/T790M/C797S) (Homo sapiens, UniProt P00533, T790M/C797S/L858R, cells depend on it); experiment: Growth inhibition of cell line expressing EGFR (L858R/T790M/C797S); type: cell-based, mouse; settings: read-out: BaF3_EGFR (L858R/T790M/C797S) IC50 value
From the text: Test for inhibitory activity against the growth of cell lines expressing wild-type and mutated EGFRs (in vitro)
(1) Mouse cell line Ba/F3-EGFR (d746-750/T790M/C797S) transfected with and stably expressing EGFR (d746-750/T790M/C797S), mouse cell Ba/F3-EGFR (L858R/T790M/C797S) transfected with and stably expressing EGFR (L858R/T790M/C797S), and mouse cell line Ba/F3-EGFR (WT) transfected with and stably expressing wild-type EGFR were each suspended in RPMI-1640 cell culture medium (RPMI-1640, 10% FBS, 100 unit/ml penicillin, 0.1 mg/ml streptomycin). In the case of the mouse cell line Ba/F3-EGFR (WT), RPMI-1640 cell culture medium containing EGF at a final concentration of 50 ng/ml was used to suspend this cell line. It should be noted that the mouse cell line Ba/F3-EGFR (d746-750/T790M/C797S) transfected with and stably expressing EGFR (d746-750/T790M/C797S), the mouse cell line Ba/F3-EGFR (L858R/T790M/C797S) transfected with and stably expressing EGFR (L858R/T790M/C797S) and the mouse cell line Ba/F3-EGFR (WT) transfected with and stably expressing wild-type EGFR were prepared by using nucleotide sequences encoding the proteins of SEQ ID NOs: 1 and 2 in accordance with Test Example 1 in WO2018/079310, These cell suspensions were seeded in wells of 96-well flat -bottomed plates. The compounds of the present invention were dissolved in DMSO, and serial dilutions of these test compounds were prepared with DMSO (1000-fold of the final concentration). Each test compound solution in DMSO or DMSO alone was diluted with RPMI-1640 cell culture medium for each cell line, and this dilution was added to wells of the cell culture plate such that the final concentration of DMSO was 0.1%, followed by culture at 37° C. for 3 days in a 5% carbon dioxide gas-containing incubator. Before and after addition of each test compound solution in DMSO, the number of cells was counted using the CellTiter-Glo® system (Promega) on the basis of the protocol recommended by Promega.
In each cell line, the rate of cell growth inhibition was calculated according to the equation shown below in wells to which each test compound was added at different concentrations. Moreover, the inhibition rate at each concentration was plotted for each test compound, and the concentration of each test compound required to give 50% cell survival rate, i.e., IC50 (nM) was determined by curve fitting software XLfit (IDBS).
Cell survival rate (%)=T/C×100
T: emission intensity in a well cultured for 3 days after addition of a test compound solution
C: emission intensity in a well cultured for 3 days after addition of DMSO
In accordance with the same procedures as shown in Test Example 2, the compounds of the present invention were tested for their inhibitory activity against the growth of the cell hoes expressing wild-type and mutated EGFRs.

[2] = biological target: T1, human EGFR (d746-750/T790M/C797S) (Homo sapiens, UniProt P00533, C797S/DEL746-750/T790M); experiment: Inhibitory activity against EGFR (d746-750/T790M/C797S) kinase; type: biochemical
T1 construct: made in house; host or cells: Sf9 insect cells, baculovirus
T1 sequence (P00533 with tags, fused parts or gaps DEL746-750/T790M/C797S): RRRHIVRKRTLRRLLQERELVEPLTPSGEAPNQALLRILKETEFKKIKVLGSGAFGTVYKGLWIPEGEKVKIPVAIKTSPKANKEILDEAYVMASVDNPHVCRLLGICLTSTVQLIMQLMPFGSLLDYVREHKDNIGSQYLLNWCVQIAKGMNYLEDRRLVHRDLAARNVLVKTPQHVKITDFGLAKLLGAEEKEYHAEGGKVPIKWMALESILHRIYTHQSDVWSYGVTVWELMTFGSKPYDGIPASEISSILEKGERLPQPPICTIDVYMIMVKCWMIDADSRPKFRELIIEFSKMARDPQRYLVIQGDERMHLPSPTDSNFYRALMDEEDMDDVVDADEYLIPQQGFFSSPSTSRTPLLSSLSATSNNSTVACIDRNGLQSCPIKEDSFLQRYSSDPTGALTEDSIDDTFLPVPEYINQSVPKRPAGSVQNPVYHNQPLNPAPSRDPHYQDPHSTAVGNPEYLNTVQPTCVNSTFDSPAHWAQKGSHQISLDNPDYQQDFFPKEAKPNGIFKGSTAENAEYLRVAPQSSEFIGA
Summary of the method: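 GST-fused cytoplasmic domain of human EGFR d746-750/T790M/C797S (Sf9-expressed) was incubated with 250 nM biotinylated peptide, 6 μM ATP, 10 mM MgCl2 and 10 mM MnCl2 (2.5% DMSO) for 120 min at 25 °C. After an EDTA stop, phosphotyrosine was detected by Eu-PT66/SureLight APC-SA TR-FRET (665/620 nm, excitation 337 nm). Background wells received EDTA before enzyme.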

[3] = Test Example 4, Table 13, same procedures as Test Example 2
[4] = Test Example 1, Table 2, ATP 6 μM, 25° C., 120 minutes
[5] = Test Example 2, Table 7, culture 3 days, CellTiter-Glo

Sequence of Ba/F3-EGFR (L858R/T790M/C797S) (P00533 whole entry T790M/C797S/L858R): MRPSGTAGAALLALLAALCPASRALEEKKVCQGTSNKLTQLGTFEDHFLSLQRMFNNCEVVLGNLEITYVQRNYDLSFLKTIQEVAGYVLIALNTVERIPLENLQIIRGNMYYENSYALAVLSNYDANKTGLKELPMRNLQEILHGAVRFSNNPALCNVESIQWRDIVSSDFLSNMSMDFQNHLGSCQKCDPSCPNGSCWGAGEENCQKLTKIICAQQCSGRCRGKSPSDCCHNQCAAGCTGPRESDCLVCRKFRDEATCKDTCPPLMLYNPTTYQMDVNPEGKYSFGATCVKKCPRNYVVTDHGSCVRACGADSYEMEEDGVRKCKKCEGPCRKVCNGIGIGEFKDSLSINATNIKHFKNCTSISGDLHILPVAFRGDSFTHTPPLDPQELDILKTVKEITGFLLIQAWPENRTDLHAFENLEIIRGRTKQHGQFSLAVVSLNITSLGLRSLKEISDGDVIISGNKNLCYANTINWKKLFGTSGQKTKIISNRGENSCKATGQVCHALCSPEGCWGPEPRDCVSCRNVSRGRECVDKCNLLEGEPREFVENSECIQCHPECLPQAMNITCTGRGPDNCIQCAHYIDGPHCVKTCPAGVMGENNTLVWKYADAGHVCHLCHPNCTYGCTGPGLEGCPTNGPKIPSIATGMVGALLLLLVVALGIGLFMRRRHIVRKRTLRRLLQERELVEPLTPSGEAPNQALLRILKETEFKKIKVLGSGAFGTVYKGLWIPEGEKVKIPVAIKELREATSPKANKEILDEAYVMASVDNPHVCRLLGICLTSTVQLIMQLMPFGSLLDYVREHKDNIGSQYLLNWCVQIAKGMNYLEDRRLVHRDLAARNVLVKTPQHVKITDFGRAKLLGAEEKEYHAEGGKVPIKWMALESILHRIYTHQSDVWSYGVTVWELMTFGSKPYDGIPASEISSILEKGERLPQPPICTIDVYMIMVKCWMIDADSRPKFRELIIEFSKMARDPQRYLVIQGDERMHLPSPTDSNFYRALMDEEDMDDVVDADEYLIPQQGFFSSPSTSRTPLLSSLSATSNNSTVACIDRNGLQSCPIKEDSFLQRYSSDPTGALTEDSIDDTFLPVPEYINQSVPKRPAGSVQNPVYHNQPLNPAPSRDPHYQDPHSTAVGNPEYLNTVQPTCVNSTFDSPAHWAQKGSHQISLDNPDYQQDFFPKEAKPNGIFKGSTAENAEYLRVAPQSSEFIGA

C#Cc1c(-c2cnc3ccccc3c2)c2c(N)ncnc2n1C12CCC(NC(=O)c3ccnn3C3CC3)(CC1)C2 [Example 20, N-(4-(4-Amino-6-ethynyl-5-(quinolin-3-yl)-7H-pyrrolo[2,3-d]pyrimidin-7-yl)bicyclo-[2.2.1]heptan-1-yl)-1-cyclopropyl-1H-pyrazole-5-carboxamide]
GI50 [1, 3]: 0.245 µM
IC50 [2, 4]: < 0.0003 µM

C#Cc1c(-c2cnc3ccccc3c2)c2c(N)ncnc2n1C12CCC(NC(=O)c3ccncc3)(CC1)C2 [Example 43]
GI50 [1, 5]: 0.417 µM
IC50 [2, 4]: < 0.0003 µM

C#Cc1c(-c2cnc3ccccc3c2)c2c(N)ncnc2n1C12CCC(NC(=O)c3cccnn3)(CC1)C2 [Example 49]
GI50 [1, 5]: 0.29 µM
IC50 [2, 4]: < 0.0003 µM

C#Cc1c(-c2cnc3ccccc3c2)c2c(N)ncnc2n1C12CCC(NC(=O)[C@@H]3CN(C)CCO3)(CC1)C2 [Example 63, (S)-N-(4-(4-Amino-6-ethynyl-5-(quinolin-3-yl)-7H-pyrrolo[2,3-d]pyrimidin-7-yl) -bicyclo[2.2.1]heptan-1-yl)-4-methylmorpholine-2-carboxamide]
GI50 [1, 3]: 0.672 µM
IC50 ([2]; Test Example 3, Table 8; same procedures as 1) in Test Example 1): < 0.0003 µM

C#Cc1c(-c2cnc3ccccc3c2)c2c(N)ncnc2n1C12CCC(NC(=O)c3cnns3)(CC1)C2 [Example 18, N-(4-(4-Amino-6-ethynyl-5-(quinolin-3-yl)-7H-pyrrolo[2,3-d]pyrimidin-7-yl)bicyclo-[2.2.1]heptan-1-yl)-1,2,3-thiadiazole-5-carboxamide]
GI50 [1, 3]: 1.27 µM
IC50 [2, 4]: < 0.0003 µM

C#Cc1c(-c2cnc3ccccc3c2)c2c(N)ncnc2n1C12CCC(NC(C)=O)(CC1)C2 [Example 39, N-(4-(4-Amino-6-ethynyl-5-(quinolin-3-yl)-7H-pyrrolo[2,3-d]pyrimidin-7-yl)-bicyclo-[2.2.1]heptan-1-yl)acetamide]
GI50 [1, 3]: 0.658 µM
IC50 [2, 4]: < 0.0003 µM

C#Cc1c(-c2cnc3ccccc3c2)c2c(N)ncnc2n1C12CCC(NC(=O)c3ccnnc3)(CC1)C2 [Example 3, N-(4-(4-Amino-6-ethynyl-5-(quinolin-3-yl)-7H-pyrrolo[2,3-d]pyrimidin-7-yl)bicyclo-[2.2.1]heptan-1-yl)pyridazine-4-carboxamide]
GI50 [1, 5]: 0.529 µM
IC50 [2, 4]: < 0.0003 µM

C#Cc1c(-c2cnc3ccccc3c2)c2c(N)ncnc2n1C12CCC(NC(=O)c3ccno3)(CC1)C2 [Example 44]
GI50 [1, 3]: 0.268 µM
IC50 [2, 4]: < 0.0003 µM

C#Cc1c(-c2cnc3ccccc3c2)c2c(N)ncnc2n1C12CCC(NC(=O)c3ncco3)(CC1)C2 [Example 46]
GI50 [1, 5]: 0.204 µM
IC50 [2, 4]: < 0.0003 µM

C#Cc1c(-c2cnc3ccccc3c2)c2c(N)ncnc2n1C12CCC(NC(=O)c3cncc(F)c3)(CC1)C2 [Example 35, N-(4-(4-Amino-6-ethynyl-5-(quinolin-3-yl)-7H-pyrrolo[2,3-d]pyrimidin-7-yl)-bicyclo-[2.2.1]heptan-1-yl)-5-fluoronicotinamide]
GI50 [1, 3]: 0.348 µM
IC50 [2, 4]: < 0.0003 µM

C#Cc1c(-c2cnc3ccccc3c2)c2c(N)ncnc2n1C12CCC(NC(=O)c3ccnn3C)(CC1)C2 [Example 24, N-(4-(4-Amino-6-ethynyl-5-(quinolin-3-yl)-7H-pyrrolo[2,3-d]pyrimidin-7-yl)bicyclo-[2.2.1]heptan-1-yl)-1-methyl-1H-pyrazole-5-carboxamide]
GI50 [1, 5]: 0.403 µM
IC50 [2, 4]: < 0.0003 µM

C#Cc1c(-c2cnc3ccccc3c2)c2c(N)ncnc2n1C12CCC(N3CCOCC3)(CC1)C2 [Example 9, 6-Ethynyl-7-(4-morpholinobicyclo[2.2.1]heptan-1-yl)-5-(quinolin-3-yl)-7H-pyrrolo[2,3-d]pyrimidine-4-amine]
GI50 [1, 3]: 0.592 µM
IC50 [2, 4]: < 0.0003 µM

C#Cc1c(-c2cnc3ccccc3c2)c2c(N)ncnc2n1C12CCC(NC(=O)c3ccco3)(CC1)C2 [Example 41]
GI50 [1, 3]: 0.843 µM
IC50 [2, 4]: < 0.0003 µM

C#Cc1c(-c2cnc3ccccc3c2)c2c(N)ncnc2n1C12CCC(NC(=O)c3cnccn3)(CC1)C2 [Example 48]
GI50 [1, 5]: 0.223 µM
IC50 [2, 4]: < 0.0003 µM

C#Cc1c(-c2cnc3ccccc3c2)c2c(N)ncnc2n1C12CCC(NC(=O)c3nccn3C)(CC1)C2 [Example 23, N-(4-(4-Amino-6-ethynyl-5-(quinolin-3-yl)-7H-pyrrolo[2,3-d]pyrimidin-7-yl)bicyclo-[2.2.1]heptan-1-yl)-1-methyl-1H-imidazole-2-carboxamide]
GI50 [1, 3]: 0.649 µM
IC50 [2, 4]: < 0.0003 µM

C#Cc1c(-c2cnc3ccccc3c2)c2c(N)ncnc2n1C12CCC(NC(=O)c3ccccc3)(CC1)C2 [Example 1, N-(4-(4-Amino-6-ethynyl-5-(quinolin-3-yl)-7H-pyrrolo[2,3-d]pyrimidin-7-yl)bicyclo-[2.2.1]heptan-1-yl)benzamide]
GI50 [1, 3]: 0.887 µM
IC50 [2, 4]: < 0.0003 µM

C#Cc1c(-c2cnc3ccccc3c2)c2c(N)ncnc2n1C12CCC(CNC(=O)c3cnc(C)cn3)(CC1)C2 [Example 14, N-((4-(4-Amino-6-ethynyl-5-(quinolin-3-yl)-7H-pyrrolo[2,3-d]pyrimidin-7-yl)bicyclo-[2.2.1]heptan-1-yl)methyl)-5-methylpyrazine-2-carboxamide]
GI50 [1, 5]: 0.952 µM
IC50 [2, 4]: < 0.0003 µM

C#Cc1c(-c2cnc3ccccc3c2)c2c(N)ncnc2n1C12CCC(NC(=O)C(F)F)(CC1)C2 [Example 27, N-(4-(4-Amino-6-ethynyl-5-(quinolin-3-yl)-7H-pyrrolo[2,3-d]pyrimidin-7-yl)bicyclo-[2.2.1]heptan-1-yl)-2,2-difluoroacetamide]
GI50 [1, 3]: 0.754 µM
IC50 [2, 4]: < 0.0003 µM

C#Cc1c(-c2cnc3ccccc3c2)c2c(N)ncnc2n1C12CCC(NC(=O)c3noc(C)n3)(CC1)C2 [Example 36, N-(4-(4-Amino-6-ethynyl-5-(quinolin-3-yl)-7H-pyrrolo[2,3-d]pyrimidin-7-yl)-bicyclo-[2.2.1]heptan-1-yl)-5-methyl-1,2,4-oxadiazole-3-carboxamide]
GI50 [1, 3]: 0.448 µM
IC50 [2, 4]: < 0.0003 µM

C=CC(=O)N1CC[C@@H](n2cc(-c3cnc4ccccc4c3)c3c(N)ncnc32)C1 [Comparative Example A, (R)-1-(3(4-Amino-5-(quinolin-3-yl)-7H-pyrrolo[2,3-d]pyrimidin-7-yl)pyrrolidin-1-yl) -prop-2-en-1-one, reference compound]
GI50 [1, 5]: 2.26 µM
IC50 [2, 4]: 0.142 µM

C#Cc1c(-c2cnc3ccccc3c2)c2c(N)ncnc2n1[C@@H]1CCN(C(=O)C=C)C1 [Comparative Example B, (R)-1-(3-(4-Amino-6-ethynyl-5-(quinolin-3-yl)-7H-pyrrolo[2,3-d]pyrimidin-7-yl) -pyrrolidin-1-yl)-prop-2-en-1-one, reference compound]
GI50 [1, 5]: 3.59 µM
IC50 [2, 4]: 0.026 µM

C#Cc1c(-c2cnc3ccccc3c2)c2c(N)ncnc2n1C12CCC(NC(=O)c3cccnc3)(CC1)C2 [Example 45]
GI50 [1, 5]: 0.305 µM
IC50 [2, 4]: < 0.0003 µM

C#Cc1c(-c2cnc3ccccc3c2)c2c(N)ncnc2n1C12CCC(NC(=O)c3nccs3)(CC1)C2 [Example 53]
GI50 [1, 3]: 0.978 µM
IC50 [2, 4]: < 0.0003 µM

C#Cc1c(-c2cnc3ccccc3c2)c2c(N)ncnc2n1C12CCC(NC(=O)c3ccc4ncnn4c3)(CC1)C2 [Example 16, N-(4-(4-Amino-6-ethynyl-5-(quinolin-3-yl)-7H-pyrrolo[2,3-d]pyrimidin-7-yl)bicyclo-[2.2.1]heptan-1-yl)-[1.2.4]triazolo[1,5-a]pyrimidin-6-carboxamide]
GI50 [1, 3]: 0.283 µM
IC50 [2, 4]: < 0.0003 µM
